Values quoted from earlier work in patent US20110158922A1, “Skin Care Compositions and Method of Use Thereof” (priority 2008, published 2011).
No end group written: not given here. *: point of attachment. Palmitoyl = CCCCCCCCCCCCCCCC(=O)*

Assays:
collagen glycation = details: in vitro
synthesis of GAGs = details: in-vitro study
[1] = system: skin cell energy production; details: topical application
[2] = system: T-T dimmers in DNA, DNA repair, cell viability following UV exposure; details: in vitro

**Q.** For `COc1ccc([C@@H]2CC(=O)c3c(O)cc(O[C@@H]4O[C@H](CO[C@@H]5O[C@@H](C)[C@H](O)[C@@H](O)[C@H]5O)[C@@H](O)[C@H](O)[C@H]4O)cc3O2)cc1O` [Hesperidin flavonoids, hesperidin], which collagen glycation (collagen glycation) is on record?
**A.** Its collagen glycation is “inhibit collagen glycation in vitro”.

**Q.** For “Palmitoyl-Lysysl-Threonyl-Threonyl-Lysyl-Serine (Palmitoyl-KTTKS) [Palmitoyl pentapeptide-4, peptide derived from a collagen precursor]”, which “synthesis of GAGs” value (synthesis of GAGs) is on record?
**A.** Its value is “increase synthesis of GAGs”.

**Q.** With `CN(CC(=O)O)C(=N)N` [creatine] as the compound, how does the “skin cell energy production” value [1] read?
**A.** Its value is “substantial improvement in skin cell energy production”.

**Q.** What does the source list for “ethylbisiminomethylguaiacol manganese chloride”?
**A.** DNA repair [2]: stimulates DNA repair; cell viability following UV exposure [2]: increasing cell viability following UV exposure; formation of T-T dimmers in DNA ([2]; UV exposure): reduces the formation of T-T dimmers in DNA
